Laboratory results from patent publication US11993573B2, “Chromane-substituted, tetrahydroquinoline-substituted and thiochromane-substituted heteroarotinoids as anti-cancer agents” (THE BOARD OF REGENTS FOR OKLAHOMA STATE UNIVERSITY, priority 2018, dated 2024).
Like-named read-outs stand apart in the source and are kept apart here.

System: human ovarian cancer cell line A2780
Assay: Growth inhibition assay (CellTiter 96 Non-Rad Cell Proliferation Assay)
Format: cell-based
Details: for efficacy compared with SHetA2 / IC50 compared with SHetA2: comparison in words; for IC50 compared with SHetA2: 'exceeded' = lower IC50 in Table 1
Experimental: To illustrate the general activity of the compounds inhibiting growth of human […] ovarian cancer cells, selected compounds were synthesized and evaluated. The compounds were dissolved in DMSO at a concentration of 0.01 M. The human ovarian cancer cell line A2780 was plated in 96-well tissue culture dishes at a concentration of 3000 cells per well in RPMI medium supplemented with 10% fetal bovine serum and a mixture of antibiotics and antimycotics. The next day, the cultures were treated in triplicate with compound concentrations ranging from 2 μM to 8 μM increments. For compound 12, additional experiments were performed with concentrations of 10 μM and a series of two-fold dilutions to 156 nM. Control cultures were treated with DMSO solvent only. After 72 h of incubation, the […] 96® Non-Rad Cell Proliferation Assay (Promega) was used to quantify the remaining metabolically living cells. After subtracting blank values, the optical density (OD) readouts of the assay for the treated cultures were normalized with the average OD of the control cultures. For each compound, the experiment was repeated at least once, resulting in a minimum of 6 dose-response curves. For SHetA2, 24 response curves were available for statistical fitting parameters. A custom program was written in GNU Octave, a free software compatible with Matlab, to fit the dose-response curves with a four-parameter sigmoid function, extracting the IC50 and efficacy (the maximal % growth inhibition) parameters.
To illustrate the useful biological activity of these chroman-substituted and tetrahydroquinoline-substituted heteroarotinoids, the compounds were screened against human […] ovarian cancer cells.

[1] = Homo sapiens, A2780, Table 3, 14 series (thiochroman), A2780
[2] = Homo sapiens, A2780, Table 3, 14 series, A2780, read-out: % Efficacy
[3] = Homo sapiens, A2780, 72 h, Table 1, chroman-containing series
[4] = Homo sapiens, A2780, 72 h, Table 1, maximal % growth inhibition, A2780, 72 h, read-out: Efficacy

**Q.** Which results are given for `CC1(C)CC(C)(C)c2cc(NC(=S)NCc3ccccc3)ccc2S1` [Compound 14j, 1-Benzyl-3-(2,2,4,4-tetramethylthiochroman-6-yl)thiourea]?
**A.** IC50 [1]: 3.03 ± 0.47 µM; Emax [2]: 85.6 ± 0.6%; efficacy compared with SHetA2 (A2780): exceeded that of SHetA2 in efficacy

**Q.** With `CC1(C)CCOc2ccc(NC(=O)Nc3ccc([N+](=O)[O-])cc3)cc21` [Compound 5a, 1-(4-Nitrophenyl)-3-(4,4-dimethylchroman-6-yl)urea] as the compound, how does the IC50 [3] read?
**A.** Its IC50 is 6.7 µM.

**Q.** And the Emax [4]?
**A.** The Emax was 74%.

**Q.** `CC1(C)CC(C)(C)c2cc(NC(=S)NNC(=O)c3ccc(OC(F)(F)F)cc3)ccc2S1` [Compound 14t, N-(2,2,4,4-Tetramethylthiochroman-6-yl)-2-(4-(trifluoromethoxy)benzoyl)hydrazine-1-carbothioamide] was tested. Which IC50 [1] did it give?
**A.** The IC50 was 3.6 ± 0.18 µM.

**Q.** What about the Emax [2] of the same compound?
**A.** Its Emax is 57.4 ± 0.4%.

**Q.** Which results are given for `CC1(C)CC(C)(C)c2cc(NC(=S)NCCc3ccccc3)ccc2S1` [Compound 14k, 1-Phenethyl-3-(2,2,4,4-tetramethylthiochroman-6-yl)thiourea]?
**A.** IC50 [1]: 3.19 ± 0.47 µM; Emax [2]: 88.2 ± 0.3%; efficacy compared with SHetA2 (A2780): exceeded that of SHetA2 in efficacy

**Q.** Which IC50 [1] does the source give for `CC1(C)CC(C)(C)c2cc(NC(=S)NCc3ccc([N+](=O)[O-])cc3)ccc2S1` [Compound 14m, 1-(4-Nitrobenzyl)-3-(2,2,4,4-tetramethylthiochroman-6-yl)thiourea] here?
**A.** Its IC50 is 4.7 ± 0.11 µM.

**Q.** What about the Emax [2] of the same compound?
**A.** The Emax was 94.5 ± 0.6%.

**Q.** And the “efficacy compared with SHetA2” value (A2780)?
**A.** The value was “exceeded that of SHetA2 in efficacy”.

**Q.** Which results are given for `CCOC(=O)c1ccc(NC(=S)Nc2ccc3c(c2)C(C)(C)CC(C)(C)O3)cc1` [Compound 2b, Ethyl 4-(3-(2,2,4,4-Tetramethylchroman-6-yl)thioureido)benzoate]?
**A.** IC50 [3]: 4.3 µM; Emax [4]: 26%

**Q.** With `CC1(C)CC(C)(C)c2cc(NC(=O)Nc3ccc(C#N)cc3)ccc2S1` [Compound 14c, 1-(4-Cyanophenyl)-3-(2,2,4,4-tetramethylthiochroman-6-yl)urea] as the compound, how does the IC50 [1] read?
**A.** Its IC50 is 3.93 ± 0.03 µM.

**Q.** What about the Emax [2] of the same compound?
**A.** Its Emax is 93.3 ± 0.1%.

**Q.** And the “efficacy compared with SHetA2” value (A2780)?
**A.** Its value is “exceeded that of SHetA2 in efficacy”.

**Q.** Which IC50 [1] does the source give for `CC1(C)CC(C)(C)c2cc(NC(=S)Nc3ccc(C(N)=O)cc3)ccc2S1` [Compound 14g, 4-(3-(2,2,4,4-Tetramethylthiochroman-6-yl)thioureido)benzamide] here?
**A.** Its IC50 is 3.53 ± 0.12 µM.

**Q.** And the Emax [2]?
**A.** The Emax was 64.2 ± 1.8%.

**Q.** How did the IC50 [1] turn out when `CC1(C)CC(C)(C)c2cc(NC(=S)Nc3ccc(OC(F)(F)F)cc3)ccc2S1` [Compound 14f, 1-(2,2,4,4-Tetramethylthiochroman-6-yl)-3-(4-(trifluoromethoxy)phenyl)thiourea] was run?
**A.** The IC50 was 3.51 ± 0.07 µM.

**Q.** What about the Emax [2] of the same compound?
**A.** Its Emax is 95.3 ± 0.4%.

**Q.** What about the “efficacy compared with SHetA2” value (A2780) of the same compound?
**A.** The value was “exceeded that of SHetA2 in efficacy”.

**Q.** Which results are given for `CC1(C)CC(C)(C)c2cc(NC(=S)NCc3ccc(Cl)cc3)ccc2S1` [Compound 14l, 1-(4-Chlorobenzyl)-3-(2,2,4,4-tetramethylthiochroman-6-yl)thiourea]?
**A.** IC50 [1]: 2.98 ± 0.44 µM; Emax [2]: 89.4 ± 2.8%; efficacy compared with SHetA2 (A2780): exceeded that of SHetA2 in efficacy

**Q.** How did the IC50 (Homo sapiens, A2780, 72 h, Table 2, tetrahydroquinoline-containing members) turn out when `CC1(C)CC[N+](C)(C)c2ccc(NC(=O)Nc3ccc([N+](=O)[O-])cc3)cc21` [Compound 10, 1,1,4,4-Tetramethyl-6-(3-(4-nitrophenyl)ureido)-1,2,3,4-tetrahydroquinolin-1-ium Iodide] was run?
**A.** Its IC50 is 6.6 µM.

**Q.** What about the Emax (Homo sapiens, A2780, 72 h, Table 2, maximal % growth inhibition, A2780, 72 h, read-out: Efficacy) of the same compound?
**A.** Its Emax is 22%.

**Q.** For `CC1(C)CCSc2ccc(NC(=S)Nc3ccc([N+](=O)[O-])cc3)cc21` [Compound 14v, 1-(4,4-dimethyl-6-yl)-3-(4-nitrophenyl)thiourea], which IC50 [1] is on record?
**A.** Its IC50 is 4.01 ± 0.19 µM.

**Q.** And the Emax [2]?
**A.** Its Emax is 93.5 ± 1.7%.

**Q.** How did the IC50 [1] turn out when `COc1ccc(CNC(=S)Nc2ccc3c(c2)C(C)(C)CC(C)(C)S3)cc1` [Compound 14o, 1-(4-Methoxybenzyl)-3-(2,2,4,4-tetramethylthiochroman-6-yl)thiourea] was run?
**A.** The IC50 was 3.26 ± 0.43 µM.

**Q.** And the Emax [2]?
**A.** Its Emax is 89.6 ± 0.9%.

**Q.** And the “efficacy compared with SHetA2” value (A2780)?
**A.** Its value is “exceeded that of SHetA2 in efficacy”.

**Q.** How did the IC50 [3] turn out when `CC1(C)CC(C)(C)c2cc(NC(=S)Nc3ccc([N+](=O)[O-])cc3)ccc2O1` [Compound 2a, 1-(4-Nitrophenyl)-3-(2,2,4,4-tetramethylchroman-6-yl)thiourea] was run?
**A.** The IC50 was 6.97 µM.

**Q.** And the Emax [4]?
**A.** Its Emax is 87%.

**Q.** And the “efficacy compared with SHetA2” value (A2780)?
**A.** The value was “exceeded the efficacy of SHetA2”.

**Q.** Which IC50 [3] does the source give for `CCC1(CC)CC(C)(C)c2cc(NC(=O)Nc3ccc([N+](=O)[O-])cc3)ccc2O1` [Compound 6b, 1-(2,2-Diethyl-4,4-dimethylchroman-6-yl)-3-(4-nitrophenyl)urea] here?
**A.** Its IC50 is 2.17 µM.

**Q.** And the Emax [4]?
**A.** The Emax was 93.3%.

**Q.** And the “efficacy compared with SHetA2” value (A2780)?
**A.** The value was “exceeded the efficacy of SHetA2”.

**Q.** What about the “IC50 compared with SHetA2” value (A2780) of the same compound?
**A.** Its value is “exceeded”.

**Q.** Which results are given for `CC1(C)CC(C)(C)c2cc(NC(=S)NNc3ccccc3)ccc2S1` [Compound 14q, 2-Phenyl-N-(2,2,4,4-tetramethylthiochroman-6-yl)hydrazine-1-carbothioamide]?
**A.** IC50 [1]: 7.03 ± 0.31 µM; Emax [2]: 63.6 ± 3.7%

**Q.** Which results are given for `CC1(C)CC(C)(C)c2cc(NC(=S)Nc3ccc(C(F)(F)F)cc3)ccc2S1` [Compound 14e, 1-(2,2,4,4-Tetramethylthiochroman-6-yl)-3-(4-(trifluoromethyl)phenyl)thiourea]?
**A.** IC50 [1]: 2.86 ± 0.29 µM; Emax [2]: 95.9 ± 0.6%; efficacy compared with SHetA2 (A2780): exceeded that of SHetA2 in efficacy

**Q.** What does the source list for `CCC1(CC)CC(C)(C)Oc2ccc(NC(=O)Nc3ccc([N+](=O)[O-])cc3)cc21` [Compound 7c, 1-(4,4-Diethyl-2,2-dimethylchroman-6-yl)-3-(4-nitrophenyl)urea]?
**A.** IC50 [3]: 2.05 µM; Emax [4]: 93.6%; efficacy compared with SHetA2 (A2780): exceeded the efficacy of SHetA2; IC50 compared with SHetA2 (A2780): exceeded

**Q.** With `CC1(C)CC(C)(C)c2cc(NC(=S)NNC(=O)c3cc(C(F)(F)F)cc(C(F)(F)F)c3)ccc2S1` [Compound 14u, 2-(3,5-Bis(trifluoromethyl)benzoyl)-N-(2,2,4,4-tetramethylthiochroman-6-yl)hydrazine-1-carbothioamide] as the compound, how does the IC50 [1] read?
**A.** The IC50 was 4 ± 0.12 µM.

**Q.** And the Emax [2]?
**A.** Its Emax is 61.4 ± 2.9%.

**Q.** How did the IC50 [3] turn out when `CC1(C)CCOc2ccc(NC(=S)Nc3ccc([N+](=O)[O-])cc3)cc21` [Compound 4a, 1-(4-Nitrophenyl)-3-(4,4-dimethylchroman-6-yl)thiourea] was run?
**A.** Its IC50 is 6.4 µM.

**Q.** What about the Emax [4] of the same compound?
**A.** The Emax was 19%.

**Q.** Which IC50 [1] does the source give for `COc1cccc(NC(=S)Nc2ccc3c(c2)C(C)(C)CC(C)(C)S3)c1` [Compound 14i, 1-(3-Methoxyphenyl)-3-(2,2,4,4-tetramethylthiochroman-6-yl)thiourea] here?
**A.** The IC50 was 3.04 ± 0.52 µM.

**Q.** And the Emax [2]?
**A.** Its Emax is 38.8 ± 0.04%.

**Q.** For `CC1(C)CCOc2ccc(NC(=O)Nc3ccc(C(F)(F)F)cc3)cc21` [Compound 5b], which IC50 (Table 1, chroman-containing series, A2780, 72 h) is on record?
**A.** The IC50 was 5 µM.

**Q.** What about the Efficacy (Table 1, maximal % growth inhibition, A2780, 72 h) of the same compound?
**A.** The Efficacy was 47%.

**Q.** Which results are given for `CC1(C)CC(C)(C)c2cc(NC(=S)NNC(=O)c3ccccc3)ccc2S1` [Compound 14r, 2-Benzoyl-N-(2,2,4,4-tetramethylthiochroman-6-yl)hydrazine-1-carbothioamide]?
**A.** IC50 [1]: 0.82 ± 0.21 µM; Emax [2]: 67.9 ± 2.6%

**Q.** How did the IC50 [1] turn out when `COc1ccc(NC(=S)Nc2ccc3c(c2)C(C)(C)CC(C)(C)S3)cc1` [Compound 14h, 1-(4-Methoxyphenyl)-3-(2,2,4,4-tetramethylthiochroman-6-yl)thiourea] was run?
**A.** Its IC50 is 2.78 ± 0.47 µM.

**Q.** What about the Emax [2] of the same compound?
**A.** Its Emax is 59.8 ± 1.2%.

**Q.** What does the source list for `CC1(C)CC(C)(C)c2cc(NC(=S)Nc3ccc(Cl)cc3)ccc2S1` [Compound 14d, 1-(4-Chlorophenyl)-3-(2,2,4,4-tetramethylthiochroman-6-yl)thiourea]?
**A.** IC50 [1]: 3.17 ± 0.25 µM; Emax [2]: 91.9 ± 0.5%; efficacy compared with SHetA2 (A2780): exceeded that of SHetA2 in efficacy

**Q.** `CN1c2ccc(NC(=S)Nc3ccc(C(F)(F)F)cc3)cc2C(C)(C)C(=O)C1(C)C` [Compound 11d] was tested. Which IC50 (Table 2, tetrahydroquinoline-containing members, A2780, 72 h) did it give?
**A.** Its IC50 is 3.9 µM.

**Q.** What about the Efficacy (Table 2, maximal % growth inhibition, A2780, 72 h) of the same compound?
**A.** Its Efficacy is 90.8 (±2.0) %.
